Patent US7494996B2 (priority 2000, dated 2009)

Legend:
[1] = tested on: Pyricularia oryzae; test: whole plant or invertebrate; format: in vivo; conditions: protectant, 300 g/ha, greenhouse; 100 is total disease control, 0 is no disease control
[2] = tested on: Sphaerotheca fuliginea; test: Cucumber Powdery Mildew (CPM) protectant test in the greenhouse; format: in vivo; conditions: 300 g/ha, 100 is total disease control, 0 is no disease control
Outline: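 Protectant format: one day after spraying with test compound (A/M/W 1:1:2), cotyledon-plus-one-leaf cucumber plants were misted with Sphaerotheca spores at 2×10^5/ml. Greenhouse disease development; percent control scored at day 7 (100 = total, 0 = none).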

| Compound | Rice Blast (RB) protectant fungicide data, percent control [1] | Cucumber Powdery Mildew (CPM) protectant fungicide data, percent control [2] |
| --- | --- | --- |
| O=c1cnc(-c2ccc(Cl)c(Cl)c2)nn1CC1CC1 [Compound 272] | 100 percent control | 80 percent control |
| CCCCCN1N=C(c2ccc(Cl)cc2)NCC1=O [Compound 54] | 99 percent control | 85 percent control |
| C=CCOC(=O)N1CC(=O)N(CCCC)N=C1c1ccc(Cl)c(Cl)c1 [Compound 172] | 98 percent control | 0 percent control |
| CCCCN1N=C(c2ccc(Cl)c(Cl)c2)N(C(=O)OCCCl)CC1=O [Compound 179] | 75 percent control | 0 percent control |
| CCCCN1N=C(c2cccc(C(F)(F)F)c2)NCC1=O [Compound 115] | 100 percent control | 50 percent control |
| O=C1CNC(c2cccc(F)c2)=NN1CC(F)(F)F [Compound 84] | 80 percent control | 85 percent control |
| O=C1CNC(c2ccccc2F)=NN1CC(F)(F)F [Compound 96] | 50 percent control | 75 percent control |
| CCCN1N=C(c2ccc(F)cc2)NCC1=O [Compound 148] | 80 percent control | 80 percent control |
| CCc1ccc(C2=NN(CCc3ccccc3)C(=O)CN2)cc1 [Compound 189] | 80 percent control | 75 percent control |
| CCCCCN1N=C(c2ccc(Cl)c(Cl)c2)NCC1=O [Compound 197] | 99 percent control | 75 percent control |
| CCCCN1N=C(c2ccc(Cl)c(Cl)c2)N(C=CS(=O)(=O)c2ccccc2)CC1=O [Compound 13, 1-n-butyl-3-(3.4-dichlorophenyl)-4-(2-phenylsulfonylethene)-4,5-dihydro-1,2,4-triazin-6-one] | 95 percent control | 0 percent control |
| O=C1CNC(c2ccc(-c3ccc([N+](=O)[O-])cc3)cc2)=NN1CC(F)(F)F [Compound 142] | 80 percent control | 0 percent control |
| O=C1CNC(c2ccc(Cl)cc2)=NN1Cc1ccccc1 [Compound 30] | 85 percent control | 75 percent control |
| C=CCSC(=O)N1CC(=O)N(CCCC)N=C1c1ccc(Cl)c(Cl)c1 [Compound 191] | 95 percent control | 50 percent control |
| C#CCN1CC(=O)N(CC(F)(F)F)N=C1c1cccc(C(F)(F)F)c1 [Compound 89] | 75 percent control | 0 percent control |
| Cc1c(Cl)cc(C2=NN(CC(F)(F)F)C(=O)CN2)cc1Cl [Compound 47] | 100 percent control | 80 percent control |

| Compound | Rice Blast (RB) protectant fungicide data, percent control [1] | Cucumber Powdery Mildew (CPM) protectant fungicide data, percent control [2] |
| --- | --- | --- |
| CCCCN1N=C(c2ccc(Cl)c(Cl)c2)N(C(=O)C(=O)OC)CC1=O [Compound 85] | 100 percent control | 50 percent control |
| CCCCN1N=C(C)NC(c2ccc(C(C)(C)C)cc2)C1=O (stereo not shown) [Compound 95] | 25 percent control | 75 percent control |
| O=C1CNC(c2cnc3ccccc3c2)=NN1CC(F)(F)F [Compound 141] | 85 percent control | 50 percent control |
| CC(=O)N1CC(=O)N(CC(F)(F)F)N=C1c1cc(Cl)cc(Cl)c1 [Compound 72] | 75 percent control | 50 percent control |
| Cc1cccc(N2N=C(c3ccc(Cl)cc3)NCC2=O)c1 [Compound 58] | 85 percent control | 50 percent control |
| CCCCN1N=C(c2ccc(OC)cc2)NC(C)C1=O (stereo not shown) [Compound 38] | 0 percent control | 50 percent control |
| O=C1CNC(c2ccc(F)c(Br)c2)=NN1CC(F)(F)F [Compound 208] | 95 percent control | 50 percent control |
| CCCCN1N=C(c2cc(C)cc(C)c2)NCC1=O [Compound 295] | 99 percent control | 50 percent control |
| O=C1CNC(c2cccc([N+](=O)[O-])c2)=NN1Cc1ccccc1 [Compound 184] | 85 percent control | 75 percent control |
| CCCCN1N=C(c2ccc(F)c(Cl)c2)NCC1=O [Compound 106] | 100 percent control | 95 percent control |
| COc1ccc(C2=NN(CC(F)(F)F)C(=O)CN2)cc1 [Compound 35] | 50 percent control | 50 percent control |
| Cn1nc(-c2ccc(Oc3ccccc3)cc2)ncc1=O [Compound 282] | 75 percent control | 75 percent control |
| CN1N=C(c2ccc(Oc3ccccc3)cc2)NCC1=O [Compound 156] | 85 percent control | 0 percent control |
| CCCCn1nc(-c2cc(C(F)(F)F)cc(C(F)(F)F)c2)ncc1=O [Compound 288] | 0 percent control | 75 percent control |
| COc1c(Br)cc(C2=NN(CC(F)(F)F)C(=O)CN2)cc1Br [Compound 158] | 85 percent control | 0 percent control |
| O=C1CN(CC=CCl)C(c2cc(Cl)cc(Cl)c2)=NN1CC=CCl (mixture of isomers) [Compound 66] | 50 percent control | 0 percent control |
